According to patent publication US4459290A, “C-23-Modified derivatives of OMT, pharmaceutical compositions and method of use” (priority 1982, dated 1984):
Converted amounts (≈) assume the structure as drawn.

Key:
Escherichia coli EC14 = assay: MIC, standard agar-dilution assay (Table V); type: cell-based; details: E. coli EC14; agar dilution
Procedure: (§1) Especially noteworthy is the improved activity against gram-negative bacteria for several derivatives when compared to the activity of OMT. […] The MIC's in Tables V and VI were determined by standard agar-dilution assays. The MIC's in Table VII were obtained using a conventional broth-dilution microtiter test.

Escherichia coli N10 = assay: MIC, standard agar-dilution assay (Table V); type: cell-based; details: E. coli N10; agar dilution
Procedure: as §1

[1] = tested on: Klebsiella pneumoniae KAE; assay: MIC, standard agar-dilution assay (Table V); type: cell-based; details: K. pneumoniae KAE; agar dilution
Procedure: as §1

[2] = tested on: Klebsiella pneumoniae X26; assay: MIC, standard agar-dilution assay (Table V); type: cell-based; details: K. pneumoniae X26; agar dilution
Procedure: as §1

[3] = tested on: Staphylococcus aureus S13E; assay: MIC, standard agar-dilution assay (Table V); type: cell-based; details: S. aureus S13E; agar dilution
Procedure: as §1

[4] = tested on: Staphylococcus aureus V41; assay: MIC, standard agar-dilution assay (Table V); type: cell-based; details: S. aureus V41, penicillin-resistant strain; agar dilution
Procedure: as §1

[5] = tested on: Staphylococcus aureus X1.1; assay: MIC, standard agar-dilution assay (Table V); type: cell-based; details: S. aureus X1.1; agar dilution
Procedure: as §1

[6] = tested on: Staphylococcus aureus X400; assay: MIC, standard agar-dilution assay (Table V); type: cell-based; details: S. aureus X400, methicillin-resistant strain; agar dilution
Procedure: as §1

[7] = tested on: Staphylococcus epidermidis EPI1; assay: MIC, standard agar-dilution assay (Table V); type: cell-based; details: S. epidermidis EPI1; agar dilution
Procedure: as §1

[8] = tested on: Staphylococcus epidermidis EPI2; assay: MIC, standard agar-dilution assay (Table V); type: cell-based; details: S. epidermidis EPI2; agar dilution
Procedure: as §1

Streptococcus Group 9960 = assay: MIC, standard agar-dilution assay (Table V); type: cell-based; details: Streptococcus Group 9960; agar dilution
Procedure: as §1

[9] = tested on: Streptococcus Group D X66; assay: MIC, standard agar-dilution assay (Table V); type: cell-based; details: Streptococcus Group D X66; agar dilution
Procedure: as §1

Escherichia coli TEM = assay: MIC, standard agar-dilution assay (Table V); type: cell-based; details: E. coli TEM; agar dilution
Procedure: (§2) The MIC's in Tables V and VI were determined by standard agar-dilution assays. The MIC's in Table VII were obtained using a conventional broth-dilution microtiter test.

[10] = tested on: Haemophilus influenzae Holt; assay: MIC, standard agar-dilution assay (Table V); type: cell-based; details: H. influenzae Holt, ampicillin-sensitive strain; agar dilution
Procedure: as §2

[11] = tested on: Haemophilus influenzae R252; assay: MIC, standard agar-dilution assay (Table V); type: cell-based; details: H. influenzae R252, ampicillin-resistant strain; agar dilution
Procedure: as §2

[12] = tested on: Streptococcus pyogenes C203; assay: MIC, standard agar-dilution assay (Table V); type: cell-based; details: S. pyogenes C203; agar dilution
Procedure: as §2

[13] = tested on: Streptococcus pneumoniae Park I; assay: microbe, parasite or virus in culture; type: cell-based; details: S. pneumoniae Park I; agar dilution
Procedure: as §1

Mycoplasma gallisepticum = assay: MIC, broth-dilution microtiter test (Table VII); type: cell-based; details: M. gallisepticum; broth-dilution microtiter
Procedure: as §1

Mycoplasma hyorhinis = assay: MIC, broth-dilution microtiter test (Table VII); type: cell-based; details: M. hyorhinis; broth-dilution microtiter
Procedure: as §1

Mycoplasma synoviae = assay: MIC, broth-dilution microtiter test (Table VII); type: cell-based; details: M. synoviae; broth-dilution microtiter
Procedure: as §1

[14] = tested on: Pasteurella hemolytica 22C; assay: MIC, broth-dilution microtiter test (Table VII); type: cell-based; details: P. hemolytica 22C
Procedure: as §1

[15] = tested on: Pasteurella hemolytica 23C; assay: MIC, broth-dilution microtiter test (Table VII); type: cell-based; details: P. hemolytica 23C
Procedure: as §1

[16] = tested on: Pasteurella hemolytica 41D; assay: MIC, broth-dilution microtiter test (Table VII); type: cell-based; details: P. hemolytica 41D
Procedure: as §1

[17] = tested on: Pasteurella multocida 17E; assay: MIC, broth-dilution microtiter test (Table VII); type: cell-based; details: P. multocida 17E, bovine isolate; broth-dilution microtiter
Procedure: as §1

[18] = tested on: Pasteurella multocida 22A; assay: MIC, broth-dilution microtiter test (Table VII); type: cell-based; details: P. multocida 22A; broth-dilution microtiter
Procedure: as §1

[19] = tested on: Pasteurella multocida 40G; assay: MIC, broth-dilution microtiter test (Table VII); type: cell-based; details: P. multocida 40G; broth-dilution microtiter
Procedure: as §1

[20] = tested on: Pasteurella multocida 60A; assay: MIC, broth-dilution microtiter test (Table VII); type: cell-based; details: P. multocida 60A, avian isolate; broth-dilution microtiter
Procedure: as §1

[21] = tested on: Pasteurella multocida 68C; assay: MIC, broth-dilution microtiter test (Table VII); type: cell-based; details: P. multocida 68C; broth-dilution microtiter
Procedure: as §1

Staphylococcus aureus = assay: MIC, broth-dilution microtiter test (Table VII); type: cell-based; details: S. aureus; broth-dilution microtiter
Procedure: as §1

Streptococcus sp. 80 = assay: MIC, broth-dilution microtiter test (Table VII); type: cell-based; details: Streptococcus sp. 80; broth-dilution microtiter
Procedure: as §1

Pasteurella multocida = assay: Protection of one-day-old chicks against Pasteurella multocida infection (Table IX); type: in vivo; details: subcutaneous 30 mg/kg × 2, 1 and 4 hours post-challenge
Procedure: The C-23 modified derivatives of OMT have also shown in vivo antibacterial activity against infections induced by gram-negative bacteria. Table IX summarizes the results of tests in which illustrative compounds were evaluated against Pasteurella infections in one-day-old chicks. The compounds were administered by subcutaneous injection at a dosage of 30 mg/kg, 1 and 4 hours post-challenge of the chicks with Pasteurella multocida (0.1 ml of a twenty-hour tryptose broth culture of an avian P. multocida given subcutaneously). In the tests, all ten non-medicated infected chicks died within 24 hours of Pasteurella challenge.

SMILES | MIC (Escherichia coli EC14) | MIC (Escherichia coli N10) | MIC [1] | MIC [2] | MIC [3] [µg/mL] | MIC [4] [µg/mL] | MIC [5] [µg/mL] | MIC [6] [µg/mL] | MIC [7] [µg/mL] | MIC [8] [µg/mL] | MIC (Streptococcus Group 9960) [µg/mL] | MIC [9] [µg/mL] | MIC (Escherichia coli TEM) | MIC [10] | MIC [11] | MIC [12] [µg/mL] | MIC [13] [µg/mL] | MIC (Mycoplasma gallisepticum) [µg/mL] | MIC (Mycoplasma hyorhinis) [µg/mL] | MIC (Mycoplasma synoviae) [µg/mL] | other results
CCC1OC(=O)CC(O)C(C)C(OC2OC(C)C(O)C(N(C)C)C2O)C(CC=O)CC(C)C(=O)C=CC(C)=CC1CNC(=O)CNC(=O)C(C)N (centres unmarked) [Compound 14] | -- (MIC ≥ 128) | -- (MIC ≥ 128) | -- (MIC ≥ 128) | -- (MIC ≥ 128) | 64 (≈ 88.3 µM) | 64 (≈ 88.3 µM) | 64 (≈ 88.3 µM) | 128 (≈ 177 µM) | 64 (≈ 88.3 µM) | 64 (≈ 88.3 µM) | 64 (≈ 88.3 µM) | 64 (≈ 88.3 µM) | -- (MIC ≥ 128) | -- (MIC ≥ 128) | -- (MIC ≥ 128) | 16 (≈ 22.1 µM) | 16 (≈ 22.1 µM) | 12.5 (≈ 17.2 µM) | 50 (≈ 69 µM) | 6.25 (≈ 8.62 µM) | MIC [14]: > 50 µg/mL; MIC [15]: > 50 µg/mL; MIC [16]: > 50 µg/mL; MIC [17]: > 50 µg/mL; MIC [18]: > 50 µg/mL; MIC [19]: > 50 µg/mL; MIC [20]: > 50 µg/mL; MIC [21]: > 50 µg/mL; MIC (Staphylococcus aureus): > 50 µg/mL; MIC (Streptococcus sp. 80): 25 µg/mL (≈ 34.5 µM); Number of deaths/number treated (Pasteurella multocida): 10/10
CCC1OC(=O)CC(O)C(C)C(OC2OC(C)C(O)C(N(C)C)C2O)C(CC=O)CC(C)C(=O)C=CC(C)=CC1CNC(=O)CNC(=O)C(C)NC(=O)OC(C)(C)C (centres unmarked) [Compound 13] | -- (MIC ≥ 128) | -- (MIC ≥ 128) | -- (MIC ≥ 128) | -- (MIC ≥ 128) | 32 (≈ 38.8 µM) | 32 (≈ 38.8 µM) | 16 (≈ 19.4 µM) | 32 (≈ 38.8 µM) | 16 (≈ 19.4 µM) | 32 (≈ 38.8 µM) | 32 (≈ 38.8 µM) | 32 (≈ 38.8 µM) | -- (MIC ≥ 128) | 64 µg/mL (≈ 77.6 µM) | 64 µg/mL (≈ 77.6 µM) | 4 (≈ 4.85 µM) | 4 (≈ 4.85 µM) | 6.25 (≈ 7.58 µM) | 50 (≈ 60.6 µM) | 12.5 (≈ 15.2 µM) | MIC [14]: > 50 µg/mL; MIC [15]: > 50 µg/mL; MIC [16]: > 50 µg/mL; MIC [17]: 50 µg/mL (≈ 60.6 µM); MIC [18]: > 50 µg/mL; MIC [19]: 50 µg/mL (≈ 60.6 µM); MIC [20]: 50 µg/mL (≈ 60.6 µM); MIC [21]: 50 µg/mL (≈ 60.6 µM); MIC (Staphylococcus aureus): 25 µg/mL (≈ 30.3 µM); MIC (Streptococcus sp. 80): 6.25 µg/mL (≈ 7.58 µM); Number of deaths/number treated (Pasteurella multocida): 7/10
